US9670213B2, “Pteridine ketone derivative and applications thereof as EGFR, BLK, and FLT3 inhibitor” (EAST CHINA UNIVERSITY OF SCIENCE AND TECHNOLOGY, priority 2012, dated 2017)

System: H1975 (non-small cell lung cancer cells, EGFR L858R/T790M)
Test: Cell proliferation and growth inhibition analysis
Format: cell-based
Conditions: Homo sapiens, NCI-H1975, 72 hours, read-out: Inhibitory activity on cell proliferation (IC50, μM) H1975

## C=CC(=O)Nc1cccc(-n2c(=O)cnc3cnc(Nc4ccc(N5CCN(C)CC5)cc4)nc32)c1 [Compound 020, N-(3-(2-(4-(4-methyl-1-piperazinyl)-phenylamino)-7-oxo-8(7H)-pteridin-yl)phenyl) acrylamide]
  IC50: 0.043 µM

## C=CC(=O)Nc1cccc(-n2c(=O)cnc3cnc(Nc4ccc(N5CCN(C)CC5)cc4OC)nc32)c1 [Compound 032, N-(3-(2-(2-methoxy-4-(4-methyl-1-piperazinyl)-phenylamino)-7-oxo-8(7H)-pteridin-yl)phenyl)acrylamide]
  IC50: 0.038 µM
